According to ChEMBL document CHEMBL1122597, “Palladium (II)-catalyzed olefin-coupling reactions of kainic acid: effects of substitution on the isopropenyl group on receptor binding” (J Med Chem, 1984):

species: Rattus norvegicus; assay: Concentration that produces 50% displacement of [3H]-kainic acid from nerve cell membrane receptor sites; format: functional

Q: For `C/C(=C\c1cccc([N+](=O)[O-])c1)C1CN[C@H](C(=O)O)C1CC(=O)O` (some centres undefined), which IC50 is on record?
A: 79.4 nM

Q: Which IC50 does the source give for `C=C(C)[C@H]1CN[C@H](C(=O)O)[C@H]1CC(=O)O` [KAINIC ACID] here?
A: 17.8 nM

Q: How did the IC50 turn out when `CC(C)[C@H]1CN[C@H](C(=O)O)[C@H]1CC(=O)O` [DIHYDROKAINATE] was run?
A: 646 nM

Q: With `C/C(=C/c1cccc([N+](=O)[O-])c1)C1CN[C@H](C(=O)O)C1CC(=O)O` (some centres undefined) as the compound, how does the IC50 read?
A: 417 nM
